What was measured:
[1] = tested on: HIV coding for wild-type reverse transcriptase (WT RT); experiment: ELISA (p24) assay of HIV replication in C8166 cell culture, wild-type RT virus; format: cell-based, HIV-1; settings: Human immunodeficiency virus 1, C8166, 72 h, read-out: EC50 WT RT
How it was run: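 C8166 T cells infected at MOI 0.001 with wild-type or mutant RT HIV, then grown 3 days with serial compound dilutions in RPMI 1640 + 10% FBS. Extracellular p24 in supernatant pooled from eight replica wells measured by ELISA; % inhibition calculated from p24 levels.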

[2] = tested on: HIV coding for mutant reverse transcriptase K103N/L100I; experiment: ELISA (p24) assay of HIV replication in C8166 cell culture, K103N/L100I virus; format: cell-based, HIV-1; settings: Human immunodeficiency virus 1, C8166, 72 h, read-out: EC50 K103N/L100I
Description: (§1) Compounds of the invention were tested for their ability to inhibit HIV replication in cell culture in a 96-well plate assay. Complete RPMI 1640, consisting of RPMI 1640+10% fetal bovine serum, 10 μg/ml gentamycin and 10 μM β-mercaptoethanol was used for dilution of the compound as well as cell growth medium. The T lymphocyte cell line C8166 was infected at a multiplicity of infection of 0.001 with viruses coding for wild-type and mutant reverse transcriptase. Cells were then incubated for three days in the presence of serial dilutions of the compounds of the invention. The supernatant was pooled from eight replica wells and the concentration of extracellular p24 was determined using a commercially available HIV-1 p24 antigen assay kit (Beckman-Coulter®). The level of inhibition (% inhibition) was calculated with the following equation: [formula]

[3] = tested on: HIV coding for mutant reverse transcriptase K103N/V108I; experiment: ELISA (p24) assay of HIV replication in C8166 cell culture, K103N/V108I virus; format: cell-based, HIV-1; settings: Human immunodeficiency virus 1, C8166, 72 h, read-out: EC50 K103N/V108I
Description: as §1

HIV-1 RT Y188C = target: T1, HIV-1 RT Y188C (Human immunodeficiency virus type 1 group M subtype B, UniProt P03366, Y787C); experiment: Reverse transcriptase (RT) assay, Y188C mutant; format: biochemical
T1 construct: an HIV RT clone pKRT2 containing only the RT p66 gene regulated by the lac operon/trc promoter; made in house; host or cells: E. coli JM109, vector pKK233-2
Text: Among the enzymes for which Human Immunodeficiency Virus (HIV-1) encodes is a reverse transcriptase (1), so-named because it transcribes a DNA copy from an RNA template. This activity can be quantitatively measured in a cell-free enzyme assay and is based upon the observation that reverse transcriptase is able to use a synthetic template poly r(C) primed with a biotinylated oligo d(G) to transcribe a radio-labelled DNA strand utilising 3H-dGTP as a substrate. The assay described below utilises the wild-type enzyme (which is the predominant form of the enzyme observed in patients infected with HIV-1) and can also be used with mutant RT enzymes (for example, Y181C, prepared by site-directed mutagenesis in which the tyrosine residue at codon 181 has been replaced by a cysteine residue) in analogous assay conditions. This assay allows compounds to be evaluated for their effectiveness at inhibiting the mutant enzymes.
Some HIV-1 IIIB clone BH10 RT mutants were provided by Dr. C.-K. Shih (Boehringer Ingelheim Pharmaceutials Inc., U.S.A.) in the vector pKK233-2 (Pharmacia). Briefly an HIV RT clone pKRT2 containing only the RT p66 gene regulated by the lac operon/trc promoter was obtained from Dr. W. Summers (Yale University) (2). A variety of specific amino acid substitutions were introduced into the wild-type RT gene by site-directed mutagenesis. RT clones were subcloned into the pKK233-2 bacterial expression vector. Clones provided included wild-type, Val106Ala, Tyr181Cys, Tyr188Cys, Tyr188Leu, Gly190Ala and Pro236Leu. Others were made in-house by site-directed mutagenesis of the pKK233-2 RT clones including Lys103Asn, Lys103Asn/Tyr181Cys, Lys103Asn/Leu100Ile, Lys103Asn/Pro225His, and Lys103Asn/Val108Ile.
Purification of recombinant reverse transcriptase was performed using a combination of methods previously described (3). A single colony from a fresh plate of transformed JM109 cells was used to initiate growth of a pre-culture grown o/n at 37° C. Two liters of growth medium were inoculated with this pre-culture. At OD600˜1.5 (5-6 h at 37° C.), RT gene expression was induced with IPTG (1 mM final), and the fermentation was continued for a few more hours at 37° C. After centrifugation, supernatants were discarded while cell pellets were pooled and stored at −80° C. until purification. Cells were thawed at 4° C. overnight and suspended in lysis buffer (MES 50 mM pH 6, EDTA 1 mM, 10% v/v glyerol, 0.02% w/v OBG, 0.02% w/v sodium azide). Lysozyme was added and the mixture was incubated on ice for 40 minutes. After homogenization using a bounce in presence of lysozyme and sonication, the cells were centrifuged for 30 minutes. Supernatant (S1) was saved and stored at 4° C. The centrifuged pellet was resuspended in extraction buffer (MES 50 mM pH 6, KPO4 50 mM pH 6, KCl 100 mM, 10% v/v glycerol, 0.02% w/v OBG, 0.02% w/v sodium axide) and stirred for 30 minutes at 4° C. This second mixture was centrifuged again and the supernatant (S2) was saved. The above procedure was repeated 2 more times saving supernatants S3 and S4 and one last extraction was performed overnight (S5). Polymin P (0.005% final) was added to the combined supernatants to remove nucleic acids. This solution was stirred for 75 minutes at 4° C. and centrifuged for 1 h. The supernatant (SS1) was precipitated on ice with 20% w/v ammonium sulfate and stirred for 1 h at 4° C. The mixture was then centrifuged and the resulting supernatant (SS2) was precipitated with additional 40% w/v ammonium sulfate (60% total), stirred for 1 h and centrifuged again. The final pellet (P1) was stored overnight at 4° C. before undergoing purification the following day. All steps of the purification were performed at 4° C. unless otherwise stated.
Pellet (P1) was resuspended into MES 50 mM pH 6, KPO4 10 mM pH 6, KCl 100 mM, 10% v/v glycerol, 0.02% w/v OBG, 0.02% w/v sodium azide. The suspension was dialysis against the same buffer overnight using 12-14 kD MWCO dialysis tubing. […]

HIV-1 RT K103N/L100I = target: T2, HIV-1 RT K103N/L100I (Human immunodeficiency virus type 1 group M subtype B, UniProt P03366, K702N/L699I); experiment: Reverse transcriptase (RT) assay, K103N/L100I mutant; format: biochemical
T2 construct: an HIV RT clone pKRT2 containing only the RT p66 gene regulated by the lac operon/trc promoter; made in house; host or cells: E. coli JM109, vector pKK233-2
How it was run: (§2)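 Tritium incorporation from 3H-dGTP into newly synthesised DNA is the read-out. The mutant reverse transcriptases copy a synthetic poly r(C) template carrying a biotinylated oligo d(G) primer. Each mutant enzyme is tested under the same conditions used for wild-type RT.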

HIV-1 RT Y188L = target: T3, HIV-1 RT Y188L (Human immunodeficiency virus type 1 group M subtype B, UniProt P03366, Y787L); experiment: Reverse transcriptase (RT) assay, Y188L mutant; format: biochemical
T3 construct: an HIV RT clone pKRT2 containing only the RT p66 gene regulated by the lac operon/trc promoter; made in house; host or cells: E. coli JM109, vector pKK233-2
How it was run: as §2

HIV-1 RT K103N = target: T4, HIV-1 RT K103N (Human immunodeficiency virus type 1 group M subtype B, UniProt P03366, K702N); experiment: Reverse transcriptase (RT) assay, K103N mutant; format: biochemical
T4 construct: an HIV RT clone pKRT2 containing only the RT p66 gene regulated by the lac operon/trc promoter; made in house; host or cells: E. coli JM109, vector pKK233-2
How it was run: as §2

HIV-1 RT Y181C = target: T5, HIV-1 RT Y181C (Human immunodeficiency virus type 1 group M subtype B, UniProt P03366, Y780C); experiment: Reverse transcriptase (RT) assay, Y181C mutant; format: biochemical
T5 construct: an HIV RT clone pKRT2 containing only the RT p66 gene regulated by the lac operon/trc promoter; made in house; host or cells: E. coli JM109, vector pKK233-2
How it was run: as §2

[4] = tested on: HIV coding for mutant reverse transcriptase Y181C; experiment: ELISA (p24) assay of HIV replication in C8166 cell culture, Y181C virus; format: cell-based, HIV-1; settings: Human immunodeficiency virus 1, C8166, 72 h, read-out: EC50 Y181C
Description: as §1

SMILES | EC50 [1] | EC50 [2] | EC50 [3] | IC50 (HIV-1 RT Y188C) | IC50 (HIV-1 RT K103N/L100I) | IC50 (HIV-1 RT Y188L) | IC50 (HIV-1 RT K103N) | IC50 (HIV-1 RT Y181C) | EC50 [4]
CCN1c2ncc(CCOc3cc[n+]([O-])c4ccccc34)cc2C(=O)N(C)c2ccc(F)nc21 [compound 11, 5,11-Dihydro-11-ethyl-2-fluoro-5-methyl-8-{2-{(1-oxido-4-quinolinyl)oxy}-ethyl}-6H-dipyrido[3,2-b:2′,3′-e][1,4]diazepin-6-one] | 0.34 nM | 3.2 nM | 3.9 nM | 6.6 nM | 102 nM | 661 nM | 18 nM | 27 nM | 4.1 nM
CCN1c2ncc(CCOc3cc[n+]([O-])c4ccccc34)cc2C(=O)N(C)c2ccc(Cl)nc21 [compound 17, 2-Chloro-5,11-dihydro-11-ethyl-5-methyl-8-{2-{(1-oxido-4-quinolinyl)oxy}-ethyl}-6H-dipyrido[3,2-b:2′,3′-e][1,4]diazepin-6-one] | 0.34 nM | 1.2 nM | 2.7 nM | 8.1 nM | 40 nM | 198 nM | 25 nM | 29 nM | 2.8 nM
CCN1c2ncc(CCOc3cc[n+]([O-])c4ccccc34)cc2C(=O)N(C)c2cccnc21 [compound 21, 5,11-Dihydro-11-ethyl-5-methyl-8-{2-{(1-oxido-4-quinolinyl)oxy}ethyl}-6H-dipyrido[3,2-b:2′,3′-e][1,4]diazepin-6-one] | 0.53 nM | 5.9 nM | 5 nM | 9.9 nM | 168 nM | 1360 nM | 44 nM | 51 nM | 4.8 nM

Reference: patent publication US20020028807A1, “Non-nucleoside reverse transcriptase inhibitors” (priority 2000, published 2002)
